Test results: patent US10829501B2 (BRISTOL-MYERS SQUIBB COMPANY, priority 2016, dated 2020)
Structures can show the parent of a compound that is named as a salt. Where two headings read alike, the source gives them in different places.

What was measured:
ROCK2 = ROCK2 (Homo sapiens, UniProt O75116); experiment: ROCK2 kinase inhibition assay (LABCHIP 3000 Reader, FITC peptide substrate);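 further: rho kinase reaction read by separating phosphorylated from unphosphorylated peptide on chip, with inhibition of kinase activity computed per concentration across a dose-response series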
Sequence of ROCK2 (O75116 whole entry, species assumed): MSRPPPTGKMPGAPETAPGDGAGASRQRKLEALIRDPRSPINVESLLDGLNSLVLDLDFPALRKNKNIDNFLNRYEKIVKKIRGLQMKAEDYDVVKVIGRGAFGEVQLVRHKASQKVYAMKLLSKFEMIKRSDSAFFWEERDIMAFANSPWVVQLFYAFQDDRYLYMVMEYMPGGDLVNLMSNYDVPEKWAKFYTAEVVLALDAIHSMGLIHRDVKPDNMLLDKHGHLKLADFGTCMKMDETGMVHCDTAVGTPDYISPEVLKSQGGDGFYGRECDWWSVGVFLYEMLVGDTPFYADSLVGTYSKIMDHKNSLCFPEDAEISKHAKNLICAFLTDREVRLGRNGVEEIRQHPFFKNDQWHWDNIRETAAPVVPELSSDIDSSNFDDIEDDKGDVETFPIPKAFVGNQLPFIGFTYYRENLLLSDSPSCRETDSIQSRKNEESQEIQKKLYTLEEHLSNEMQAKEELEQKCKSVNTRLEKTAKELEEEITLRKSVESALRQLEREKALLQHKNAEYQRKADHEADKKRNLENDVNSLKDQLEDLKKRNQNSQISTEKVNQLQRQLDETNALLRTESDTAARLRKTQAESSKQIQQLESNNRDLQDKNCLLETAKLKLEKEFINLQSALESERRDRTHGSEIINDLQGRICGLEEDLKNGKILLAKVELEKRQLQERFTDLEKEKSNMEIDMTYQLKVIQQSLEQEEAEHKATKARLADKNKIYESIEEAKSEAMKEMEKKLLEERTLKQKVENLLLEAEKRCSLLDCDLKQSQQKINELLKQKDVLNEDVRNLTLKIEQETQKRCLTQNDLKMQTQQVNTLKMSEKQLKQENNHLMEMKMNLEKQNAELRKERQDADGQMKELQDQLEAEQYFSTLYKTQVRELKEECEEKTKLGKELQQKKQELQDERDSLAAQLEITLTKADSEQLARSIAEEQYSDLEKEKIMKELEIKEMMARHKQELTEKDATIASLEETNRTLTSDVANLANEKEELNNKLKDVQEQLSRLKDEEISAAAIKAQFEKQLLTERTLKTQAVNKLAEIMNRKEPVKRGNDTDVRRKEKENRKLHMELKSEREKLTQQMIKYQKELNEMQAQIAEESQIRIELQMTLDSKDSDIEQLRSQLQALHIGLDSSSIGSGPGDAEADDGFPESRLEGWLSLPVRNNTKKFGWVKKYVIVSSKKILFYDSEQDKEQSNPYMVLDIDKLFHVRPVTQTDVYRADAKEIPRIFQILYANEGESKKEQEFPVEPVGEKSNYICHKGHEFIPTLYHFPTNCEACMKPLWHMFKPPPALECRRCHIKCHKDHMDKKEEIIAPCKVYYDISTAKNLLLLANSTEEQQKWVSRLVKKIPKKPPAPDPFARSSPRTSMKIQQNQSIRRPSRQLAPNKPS

neointimal formation = settings: rats, balloon injury model; cited from earlier work
[1] = system: spontaneously hypertensive rat, renal hypertensive rat and deoxycortisone acetate salt hypertensive rat models; settings: cited from earlier work
[2] = system: congestive heart failure in Dahl salt-sensitive rats; settings: cited from earlier work
rat stroke model = settings: cited from earlier work
[3] = system: IL-1 beta-induced coronary stenosis; settings: long term treatment, porcine model; cited from earlier work
[4] = read-out: ROCK2 Activity (ROCK2 IC50), 5 μM ATP, 1.5 μM peptide substrate, pH 7.5

Compound	IC50 (ROCK2; [4]) [nM]	other results
NC(=O)c1cccnc1OC1CC2(CC(NC(=O)c3cc(N4CC5CCC(C4)O5)cc(C(F)(F)F)c3)C2)C1 [Example 456, 2-(((aR)-6-(3-(8-oxa-3-azabicyclo[3.2.1]octan-3-yl)-5-(trifluoromethyl)benzamido)spiro[3.3]heptan-2-yl)oxy)nicotinamide]	< 5	
Cc1nc(C(=O)NC2CC3(C2)CC(Oc2ncccc2C(N)=O)C3)c2ccc(Br)cn12 [Example 457, 6-bromo-N-((aR)-6-((3-carbamoylpyridin-2-yl)oxy)spiro[3.3]heptan-2-yl)-3-methylimidazo[1,5-a]pyridine-1-carboxamide]	50 to 250	
Cc1c(-c2ccc3c(C(=O)NC4CC5(C4)CC(Oc4ncccc4C(N)=O)C5)nc(C)n3c2)cnn1C [Example 458, N-((aR)-6-((3-carbamoylpyridin-2-yl)oxy)spiro[3.3]heptan-2-yl)-6-(1,5-dimethyl-H-pyrazol-4-yl)-3-methylimidazo[1,5-a]pyridine-1-carboxamide]	5 to 50	
Cc1nn(C)cc1-c1ccc2c(C(=O)NC3CC4(C3)CC(Oc3ncccc3C(N)=O)C4)nc(C)n2c1 [Example 459, N-((aR)-6-((3-carbamoylpyridin-2-yl)oxy)spiro[3.3]heptan-2-yl)-6-(1,3-dimethyl-1H-pyrazol-4-yl)-3-methylimidazo[1,5-a]pyridine-1-carboxamide]	5 to 50	
Cc1nc(C(=O)NC2CC3(C2)CC(Oc2ncccc2C(N)=O)C3)c2ccc(-c3cnn(C)c3)cn12 [Example 460, N-((aR)-6-((3-carbamoylpyridin-2-yl)oxy)spiro[3.3]heptan-2-yl)-3-methyl-6-(1-methyl-1H-pyrazol-4-yl)imidazo[1,5-a]pyridine-1-carboxamide]	5 to 50	
NC(=O)c1cccnc1OC1CC2(CC(NC(=O)c3nc(N)nc4ccccc34)C2)C1 [Example 461, 2-Amino-N-((aR)-6-((3-carbamoylpyridin-2-yl)oxy)spiro[3.3]heptan-2-yl)quinazoline-4-carboxamide, 2 TFA]	50 to 250	
NC(=O)c1cccnc1OC1CC2(CC(NC(=O)c3cnn4c(C5CC5)c(OCC5(O)CCC5)ccc34)C2)C1 [Example 462, N-((aR)-6-((3-carbamoylpyridin-2-yl)oxy)spiro[3.3]heptan-2-yl)-7-cyclopropyl-6-((1-hydroxycyclobutyl)methoxy)pyrazolo[1,5-a]pyridine-3-carboxamide, TFA]	< 5	
[H][C@]1(Oc2ncccc2C(N)=O)C[C@]2(C[C@@H](NC(=O)c3cn4ccc(OCc5ccccc5)cc4n3)C2)C1 (stereo partly drawn) [Example 463, 7-(benzyloxy)-N-((aR)-6-((3-carbamoylpyridin-2-yl)oxy)spiro 3.31 heptan-2-yl)imidazo[1,2-a]pyridine-2-carboxamide, TFA Salt]		IC50 (ROCK2): 50 to 250 nM
[H][C@]1(Oc2ncccc2C(N)=O)C[C@]2(C[C@@H](NC(=O)c3cn4cc(OC)ccc4n3)C2)C1 (stereo partly drawn) [Example 464, N-((aR)-6-((3-carbamoylpyridin-2-yl)oxy)spiro[3.3]heptan-2-yl)-6-methoxyimidazo[1,2-a]pyridine-2-carboxamide, TFA Salt]		IC50 (ROCK2): 250 to 2500 nM
C[C@@H](N)[C@H]1CC[C@H](C(=O)Nc2ccncc2)CC1 [Example Y-27632]		neointimal formation (neointimal formation): inhibited neointimal formation; blood pressure ([1]; control rats): only a minor effect on blood pressure; blood pressure ([1]; three rat models of hypertension): significantly decrease blood pressure; ventricular hypertrophy, fibrosis and function [2]: improve ventricular hypertrophy, fibrosis and function
O=S(=O)(c1cccc2cnccc12)N1CCCNCC1 [fasudil]		infarct size and neurologic deficit (rat stroke model): reduce both the infarct size and neurologic deficit; coronary constrictive remodeling [3]: promote a regression of coronary constrictive remodeling; coronary stenosis [3]: progressively reduce coronary stenosis
N-((aR)-6-((3- carbamoylpyridin-2- yl)oxxy)spiro[3.3] heptan-2-yl)- 5-fluoro-1- (2-hydroxy-2- methylpropyl)- 3a,7a-dihydro- 1H-indazole-3- carboxamide, trifluoroacetate [Example 67]	5 to 50	
N-((aR)-6-((3- carbamoylpyridin-2- yl)oxy))spiro[3.3] heptan-2-yl)- 6-((E)-3,3,3- trifluoroprop-1- en-1-yl) pyrazolo[1,5- a]pyridine-3- carboxamide, trifluoroacetate [Example 116]	5 to 50	
N-((aR)-6-((3- carbamoylpyridin-2- yl)oxy)spiro [3.3]heptan-2-yl)- 6- methoxypyrazolo[1,5- a]pyridine-3- carboxamide, trifluoroacetate [Example 100]	5 to 50	
N-((aR)-6-((3- carbamoylpyridin-2- yl)oxy)spiro[3.3] heptan-2-yl)- 6-(3-hydroxy-3- methylbutoxy) pyrazolo[1,5- a]pyridine-3- carboxamide, trifluoroacetate [Example 123]	5 to 50	
N-((aR)- 6-((3- carbamoyl- pyridin-2- yl)oxy)spiro[3.3] heptan-2-yl)- 1-(2- hydroxy-2- methylpropyl)-1H- pyraolo[3,4-b] pyridine-3- carboxamide, trifluoroacetate [Example 94]	5 to 50	
N-((aR)- 6-((3- carbamoylpyridin- 2- yl)oxy)spiro[3.3] heptan-2-yl)- 2-(3,3-difluoroazetidin- 1-yl)- 4-methylthiazole- 5- carboxamide, trifluoroacetate [Example 90]	50 to 250	
